Experimental data from paper PMC7356613, “Unsymmetrically-Substituted 5,12-dihydrodibenzo[b,f][1,4]diazocine-6,11-dione Scaffold—A Useful Tool for Bioactive Molecules Design” (Molecules, 2020).
Where two headings read alike, the source gives them in different places.

What was measured:
[1] = tested on: EUFA30 cells (non-cancerous human fibroblasts); assay: Alamar Blue cytotoxicity assay, EUFA30; assay type: cell-based; settings: Fibroblast; for inhibition at 300 µM: bracketed values, read-out: proliferation inhibition expressed as a percentage at highest concentration used
Protocol: (§1) HeLa, U87, BICR18, EUFA30 cell lines were cultured in DMEM medium (Life Technology) supplemented with 10% fetal bovine serum (Life Technology) and 0.1% antibiotics, penicillin and streptomycin (Life Technology). Cells were grown in a humidified atmosphere of CO2/air (5/95%) at 37 °C.
(§2) Exponentially growing cells were seeded onto a 96-well plate at the density of 2 × 10^3 cells/well, cultured for 18 h, and treated with newly synthesized derivatives at concentrations 1–300 µM, or with DMSO as a control, for 24 or 48 h. Alamar Blue (Invitrogen) was added accordingly to manufacturer protocol. After 4 h, light emission at 590 nm was measured with excitation at 560 nm using a scanning multiwell spectrophotometer (DTX 880, Beckman Coulter). The experiments were carried out at least three times with three replicates for each inhibitor concentration. After background subtraction, inhibition rate, IC50 was calculated as the concentration of the component inhibiting cell growth by 50%. All the calculations were performed using Origin 9.0 software.

[2] = tested on: HeLa cells (cervix adenocarcinoma); assay: Alamar Blue cytotoxicity assay, HeLa; assay type: cell-based; settings: Homo sapiens; for inhibition at 300 µM: bracketed values, read-out: proliferation inhibition expressed as a percentage at highest concentration used
Protocol: as §1, §2

[3] = tested on: BICR18 cells (laryngeal squamous cell carcinoma); assay: Alamar Blue cytotoxicity assay, BICR18; assay type: cell-based; settings: 300 µM, bracketed values, read-out: proliferation inhibition expressed as a percentage at highest concentration used
Protocol: as §1, §2

[4] = tested on: U87 cells (human primary glioblastoma); assay: Alamar Blue cytotoxicity assay, U87; assay type: cell-based; settings: U-87 MG; for inhibition at 300 µM: bracketed values, read-out: proliferation inhibition expressed as a percentage at highest concentration used
Protocol: as §1, §2

EUFA30 cells = assay: Annexin V-FITC / propidium iodide flow cytometry, EUFA30; assay type: cell-based, human; settings: 24 h
Protocol: as §1
(§3) The Annexin V-FITC apoptosis detection kit (BD Biosciences) was used to detect apoptosis by flow cytometry. Cells were seeded at Petri dishes, cultured for 18 h with tested agents applied for 24 h. DMSO was added as the non-treated control and camptothecin (CPT) as the positive control. Subsequently, cells were washed with PBS, resuspended in binding buffer at a concentration of 2 × 10^6 cells/mL, and anti-Annexin V FITC-conjugated antibody and propidium iodide were added to 100 µL aliquots. The mixtures were incubated for 15 min at room temperature, supplemented with binding buffer to 500 µL and processed by BD FACSCalibur (BD Biosciences). Data were analyzed in Flowing Software version 2.5.1 (Flowing Software, http://www.uskonaskel.fi/flowingsoftware).

HeLa cells = assay: Annexin V-FITC / propidium iodide flow cytometry, HeLa; assay type: cell-based; settings: 24 h
Protocol: as §1, §3

[5] = tested on: EUFA30, HeLa, BICR18, U87 cells; assay: Alamar Blue cytotoxicity assay, statements over all tested cell lines; assay type: cell-based; settings: Homo sapiens, concentrations 1-300 µM, group range = lowest to highest value, read-out: IC50 across the tested cell lines
Protocol: as §1, §2

[6] = EUFA30, positive control, 10 μM

Compound | inhibition at 300 µM ([1]; EUFA30, 24 h) [%] | inhibition at 300 µM ([1]; EUFA30, 48 h) [%] | inhibition at 300 µM ([2]; 24 h) [%] | inhibition at 300 µM ([2]; 48 h) [%] | inhibition at 300 µM ([3]; BICR18, 24 h) [%] | inhibition at 300 µM ([4]; U87, 24 h) [%] | melting point | inhibition at 300 µM ([3]; BICR18, 48 h) [%] | also measured
O=C1Nc2ccccc2NC(=O)c2ccccc21 [Compound 3a, 5,12-dihydrodibenzo[b,f][1,4]diazocine-6,11-dione] | 21.2 | 9 | 20.7 | 1.5 | 7.1 | 17.6 | 286 to 287 °C | – | –
O=C1Nc2ccc([N+](=O)[O-])cc2NC(=O)c2ccccc21 [Compound 3b, 2-nitro-5,12-dihydrodibenzo[b,f][1,4]diazocine-6,11-dione] | 31 | 18.6 | 33.2 | 4.7 | 2.2 | 10.4 | 230 °C (dec.) | – | –
O=C(c1ccccc1)c1ccc2c(c1)NC(=O)c1ccccc1C(=O)N2 [Compound 3c, 2-benzoyl-5,12-dihydrodibenzo[b,f][1, 4]diazocine-6,11-dione] | 28.8 | – | 14.5 | – | 10 | 15 | 156 to 157 °C | – | –
O=C1Nc2ccccc2NC(=O)c2cc([N+](=O)[O-])ccc21 [Compound 3d, 8-nitro-5,12-dihydrodibenzo[b,f][1,4]diazocine-6,11-dione] | 9.2 | 4.2 | 23.4 | 3.9 | 25.1 | 27.5 | 243 to 244 °C | 2.5 | –
CN1C(=O)c2ccccc2C(=O)Nc2ccccc21 [Compound 3e, 5-methyl-5,12-dihydrodibenzo[b,f][1,4]diazocine-6,11-dione] | 31.6 | 17.5 | 19.8 | 5.7 | 22.7 | 34.1 | 206 to 207 °C | – | –
CN1C(=O)c2ccccc2C(=O)Nc2cc(Cl)c(Cl)cc21 [Compound 3f, 2,3-dichloro-5-methyl-5,12-dihydrodibenzo[b,f][1,4]diazocine-6,11-dione] | – | 19.1 | – | 7.8 | 47.5 | – | – | 7.6 | IC50 ([1]; EUFA30, 24 h of treatment, read-out: IC50 based on survival of cells): 320 ± 36 µM; IC50 ([2]; 24 h of treatment, read-out: IC50 based on survival of cells): 298 ± 11 µM; IC50 ([4]; U87, 24 h of treatment, read-out: IC50 based on survival of cells): 207 ± 23.6 µM; inhibition at 300 µM ([4]; U87, 48 h): 29.9%; dead cell fraction: early apoptosis (EUFA30 cells; EUFA30, 200 µM, non-treated control 0.3%): 6.9%; dead cell fraction: late apoptosis (EUFA30 cells; EUFA30, 200 µM, non-treated control 0.4%): 1.6%; dead cell fraction: necrosis (EUFA30 cells; EUFA30, 200 µM, non-treated control 5.7%): 4.3%; number of necrotic cells (HeLa cells; 200 µM, non-treated control 5.4%): 15.3%; IC50 [5]: 93.7 to 323 µM
CN1C(=O)c2cscc2C(=O)Nc2ccccc21 [Compound 3i, 5-methyl-5,10-dihydrobenzo[b]thieno[3,4-f][1,4]diazocine-4,11-dione] | 29.4 | 1.5 | 14.8 | 1.6 | 24 | 36.6 | 241 to 242 °C | – | inhibition at 300 µM ([4]; U87, 48 h): 2.8%
O=C1Nc2ccccc2N(Cc2ccccc2)C(=O)c2ccccc21 [Compound 3j, 5-benzyl-5,12-dihydrodibenzo[b,f][1,4]diazocine-6,11-dione] | 33.2 | 32.6 | 34.3 | 3.3 | 42.2 | 33 | 205 to 206 °C | 6.1 | IC50 [5]: > 300 µM
CCOC(=O)c1cc2c(cc1C(=O)OCC)C(=O)Nc1ccccc1NC2=O [Compound 3k, diethyl 6,11-dioxo-5,6,11,12-tetrahydrodibenzo[b,f][1,4]diazocine-8,9-dicarboxylate] | 36.7 | – | 28.2 | – | 16.8 | 37.2 | 242 to 243 °C | 5.6 | inhibition at 300 µM ([4]; U87, 48 h): 3.1%
CN1C(=O)c2ccccc2C(=O)N(C)c2ccccc21 [Compound 3l, 5,12-dimethyl-5,12-dihydrodibenzo[b,f][1,4]diazocine-6,11-dione] | 38.1 | 19.5 | 29.5 | 2.8 | 22.1 | 39 | 265 to 266 °C | – | –
CN(C)CCN1C(=O)c2ccccc2C(=O)N(Cc2ccccc2)c2ccccc21 [Compound 3m, 5-benzyl-12-(2-(dimethylamino)ethyl)-5,12-dihydrodibenzo[b,f][1,4]diazocine-6,11-dione] | 42.2 | 9.9 | 23.4 | – | 30.1 | 36.8 | 154 to 155 °C | 4.7 | inhibition at 300 µM ([4]; U87, 48 h): 4.1%
O=C1CCC(=O)Nc2ccccc2N1 [Compound 6, 1,3,4,6-tetrahydrobenzo[b][1,4]diazocine-2,5-dione] | 29.4 | 14 | 21.5 | 4.3 | 11.3 | 19.6 | 244 to 245 °C | – | –
Nc1ccccc1N1C(=O)c2ccccc2C1=O [Compound 10, 2-(2-aminophenyl)isoindoline-1,3-dione] | 25.6 | – | 4.9 | – | 11.4 | 22.9 | 195 to 196 °C | – | –
CC[C@@]1(O)C(=O)OCc2c1cc1n(c2=O)Cc2cc3ccccc3nc2-1 [camptothecin, reference compound] | – | – | – | – | – | – | – | – | dead cell fraction: early apoptosis (EUFA30 cells; [6]): 4.1%; dead cell fraction: late apoptosis (EUFA30 cells; [6]): 6.8%; dead cell fraction: necrosis (EUFA30 cells; [6]): 18.7%; necrotic cells (HeLa cells; positive control, 10 μM): 31.2%
